Reference: patent US20250145687A1, “MODIFIED LIGAND-GATED ION CHANNELS AND METHODS OF USE” (Howard Hughes Medical Institute, priority 2022, published 2025)
Like-named read-outs stand apart in the source and are kept apart here.

Assays:
Format in all cases: cell-based
[1] = molecular target: T1, α7^L131G,Q139L,Y217F-5HT3 H163R (Homo sapiens, UniProt P36544, H163R/L131G/M226I/Q139L/T225I/Y217F); test: EC50 dose response, PSAM4-5HT3 with additional mutations; settings: additional mutation H163R; read-out: EC50s (SEM) for additional mutations of α7^L131G, Q139L, Y217F -5HT3
T1 construct: expressed in transfected cells; host or cells: HEK 293

[2] = molecular target: T2, α7^L131G,Q139L,Y217F-5HT3 S172I (Homo sapiens, UniProt P36544, L131G/M226I/Q139L/S172I/T225I/Y217F); test: as above; settings: additional mutation S172I; read-out: EC50s (SEM) for additional mutations of α7^L131G, Q139L, Y217F -5HT3
T2 construct: expressed in transfected cells; host or cells: HEK 293

[3] = molecular target: T3, α7^L131G,Q139L,Y217F-5HT3 S172A (Homo sapiens, UniProt P36544, L131G/M226I/Q139L/S172A/T225I/Y217F); test: as above; settings: additional mutation S172A; read-out: EC50s (SEM) for additional mutations of α7^L131G, Q139L, Y217F -5HT3
T3 construct: expressed in transfected cells; host or cells: HEK 293

[4] = molecular target: T4, α7-5HT3 L131G, Q139L, W171F (Homo sapiens, UniProt P36544, L131G/M226I/Q139L/T225I/W171F); test: EC50 dose response, α7-5HT3 mutant; settings: read-out: EC50s (SEM) for additional mutations of α7^L131G, Q139L, Y217F -5HT3
T4 construct: expressed in transfected cells; host or cells: HEK 293

[5] = molecular target: T5, α7^L131G,Q139L,Y217F-5HT3 H163D (Homo sapiens, UniProt P36544, H163D/L131G/M226I/Q139L/T225I/Y217F); test: EC50 dose response, PSAM4-5HT3 with additional mutations; settings: additional mutation H163D; read-out: EC50s (SEM) for additional mutations of α7^L131G, Q139L, Y217F -5HT3
T5 construct: expressed in transfected cells; host or cells: HEK 293

[6] = molecular target: T6, α7^L131G,Q139L,Y217F-5HT3 V154I, R155Y, W156N, S172A (Homo sapiens, UniProt P36544, L131G/M226I/Q139L/R155Y/S172A/T225I/V154I/W156N/Y217F); test: as above; settings: read-out: EC50s (SEM) for additional mutations of α7^L131G, Q139L, Y217F -5HT3
T6 construct: expressed in transfected cells; host or cells: HEK 293

[7] = molecular target: T7, α7^L131G,Q139L,Y217F-5HT3 H163K (Homo sapiens, UniProt P36544, H163K/L131G/M226I/Q139L/T225I/Y217F); test: as above; settings: additional mutation H163K; read-out: EC50s (SEM) for additional mutations of α7^L131G, Q139L, Y217F -5HT3
T7 construct: expressed in transfected cells; host or cells: HEK 293

[8] = molecular target: T8, α7-5HT3 L131G, Q139L, Y217V (Homo sapiens, UniProt P36544, L131G/M226I/Q139L/T225I/Y217V); test: EC50 dose response, α7-5HT3 mutant; settings: read-out: EC50s (SEM) for additional mutations of α7^L131G, Q139L, Y217F -5HT3
T8 construct: 5HT3 ion pore domain (fusion partner); expressed in transfected cells; HEK 293 is named only for the electrophysiology

[9] = molecular target: T9, α7^L131G,Q139L,Y217F-5HT3 H163S (Homo sapiens, UniProt P36544, H163S/L131G/M226I/Q139L/T225I/Y217F); test: EC50 dose response, PSAM4-5HT3 with additional mutations; settings: additional mutation H163S; read-out: EC50s (SEM) for additional mutations of α7^L131G, Q139L, Y217F -5HT3
T9 construct: expressed in transfected cells; host or cells: HEK 293

[10] = molecular target: T10, α7^L131G,Q139L,Y217F-5HT3 H163T (Homo sapiens, UniProt P36544, H163T/L131G/M226I/Q139L/T225I/Y217F); test: as above; settings: additional mutation H163T; read-out: EC50s (SEM) for additional mutations of α7^L131G, Q139L, Y217F -5HT3
T10 construct: expressed in transfected cells; host or cells: HEK 293

[11] = molecular target: T11, α7^L131G,Q139L,Y217F-5HT3 H163T, S172V (Homo sapiens, UniProt P36544, H163T/L131G/M226I/Q139L/S172V/T225I/Y217F); test: as above; settings: read-out: EC50s (SEM) for additional mutations of α7^L131G, Q139L, Y217F -5HT3
T11 construct: expressed in transfected cells; host or cells: HEK 293

[12] = molecular target: T12, α7^L131G,Q139L,Y217F-5HT3 H163T, S172A (Homo sapiens, UniProt P36544, H163T/L131G/M226I/Q139L/S172A/T225I/Y217F); test: as above; settings: read-out: EC50s (SEM) for additional mutations of α7^L131G, Q139L, Y217F -5HT3
T12 construct: expressed in transfected cells; host or cells: HEK 293

[13] = molecular target: T13, α7^L131G,Q139L,Y217F-5HT3 H163V (Homo sapiens, UniProt P36544, H163V/L131G/M226I/Q139L/T225I/Y217F); test: as above; settings: additional mutation H163V; read-out: EC50s (SEM) for additional mutations of α7^L131G, Q139L, Y217F -5HT3
T13 construct: expressed in transfected cells; host or cells: HEK 293

[14] = molecular target: T14, α7^L131G,Q139L,Y217F-5HT3 V154I, R155Y, W156N (Homo sapiens, UniProt P36544, L131G/M226I/Q139L/R155Y/T225I/V154I/W156N/Y217F); test: as above; settings: read-out: EC50s (SEM) for additional mutations of α7^L131G, Q139L, Y217F -5HT3
T14 construct: expressed in transfected cells; host or cells: HEK 293

[15] = molecular target: T15, α7^L131G,Q139L,Y217F-5HT3 W156N (Homo sapiens, UniProt P36544, L131G/M226I/Q139L/T225I/W156N/Y217F); test: cell-based
T15 construct: expressed in transfected cells; host or cells: HEK 293

[16] = molecular target: T16, α7-5HT3 L131G, Q139L, Y217H (Homo sapiens, UniProt P36544, L131G/M226I/Q139L/T225I/Y217H); test: EC50 dose response, α7-5HT3 mutant; settings: read-out: EC50s (SEM) for additional mutations of α7^L131G, Q139L, Y217F -5HT3
T16 construct: expressed in transfected cells; host or cells: HEK 293

[17] = molecular target: T17, α7^L131G,Q139L,Y217F-5HT3 V154L, R155Y, W156Q (Homo sapiens, UniProt P36544, L131G/M226I/Q139L/R155Y/T225I/V154L/W156Q/Y217F); test: EC50 dose response, PSAM4-5HT3 with additional mutations; settings: read-out: EC50s (SEM) for additional mutations of α7^L131G, Q139L, Y217F -5HT3
T17 construct: expressed in transfected cells; host or cells: HEK 293

[18] = molecular target: T18, α7^L131G,Q139L,Y217F-5HT3 H163F (Homo sapiens, UniProt P36544, H163F/L131G/M226I/Q139L/T225I/Y217F); test: as above; settings: additional mutation H163F; read-out: EC50s (SEM) for additional mutations of α7^L131G, Q139L, Y217F -5HT3
T18 construct: expressed in transfected cells; host or cells: HEK 293

[19] = molecular target: T19, α7^L131G,Q139L,Y217F-5HT3 V154I, R155Y, W156N, S172V (Homo sapiens, UniProt P36544, L131G/M226I/Q139L/R155Y/S172V/T225I/V154I/W156N/Y217F); test: as above; settings: read-out: EC50s (SEM) for additional mutations of α7^L131G, Q139L, Y217F -5HT3
T19 construct: expressed in transfected cells; host or cells: HEK 293

[20] = molecular target: T20, PSAM4-5HT3 (α7-5HT3^L131G,Q139L,Y217F) (Homo sapiens, UniProt P36544, L131G/M226I/Q139L/T225I/Y217F); test: EC50 dose response of LGIC ligands on PSAM4-5HT3; settings: read-out: EC50s (SEM) for additional mutations of α7^L131G, Q139L, Y217F -5HT3
T20 construct: expressed in transfected cells; host or cells: HEK 293

[21] = molecular target: T21, α7^L131G,Q139L,Y217F-5HT3 W156N, H163T (Homo sapiens, UniProt P36544, H163T/L131G/M226I/Q139L/T225I/W156N/Y217F); test: EC50 dose response, PSAM4-5HT3 with additional mutations; settings: read-out: EC50s (SEM) for additional mutations of α7^L131G, Q139L, Y217F -5HT3
T21 construct: expressed in transfected cells; host or cells: HEK 293

[22] = molecular target: T22, α7^L131G,Q139L,Y217F-5HT3 S172V (Homo sapiens, UniProt P36544, L131G/M226I/Q139L/S172V/T225I/Y217F); test: as above; settings: additional mutation S172V; read-out: EC50s (SEM) for additional mutations of α7^L131G, Q139L, Y217F -5HT3
T22 construct: expressed in transfected cells; host or cells: HEK 293

[23] = molecular target: T23, α7-5HT3 L131G, Q139L, Y217A (Homo sapiens, UniProt P36544, L131G/M226I/Q139L/T225I/Y217A); test: EC50 dose response, α7-5HT3 mutant; settings: read-out: EC50s (SEM) for additional mutations of α7^L131G, Q139L, Y217F -5HT3
T23 construct: expressed in transfected cells; host or cells: HEK 293

[24] = molecular target: T24, α7^L131G,Q139L,Y217F-5HT3 H163N (Homo sapiens, UniProt P36544, H163N/L131G/M226I/Q139L/T225I/Y217F); test: EC50 dose response, PSAM4-5HT3 with additional mutations; settings: additional mutation H163N; read-out: EC50s (SEM) for additional mutations of α7^L131G, Q139L, Y217F -5HT3
T24 construct: expressed in transfected cells; host or cells: HEK 293

[25] = molecular target: T25, α7^L131G,Q139L,Y217F-5HT3 H163A (Homo sapiens, UniProt P36544, H163A/L131G/M226I/Q139L/T225I/Y217F); test: as above; settings: additional mutation H163A; read-out: EC50s (SEM) for additional mutations of α7^L131G, Q139L, Y217F -5HT3
T25 construct: expressed in transfected cells; host or cells: HEK 293

[26] = molecular target: T26, α7-5HT3 L131G, Q139L, Y217N (Homo sapiens, UniProt P36544, L131G/M226I/Q139L/T225I/Y217N); test: EC50 dose response, α7-5HT3 mutant; settings: read-out: EC50s (SEM) for additional mutations of α7^L131G, Q139L, Y217F -5HT3
T26 construct: 5HT3 ion pore domain (fusion partner); expressed in transfected cells

[27] = molecular target: T27, α7-5HT3 L131G, Q139L, W171Y (Homo sapiens, UniProt P36544, L131G/M226I/Q139L/T225I/W171Y); test: EC50 dose response, α7-5HT3 mutant; settings: read-out: EC50s (SEM) for additional mutations of α7^L131G, Q139L, Y217F -5HT3
T27 construct: expressed in transfected cells; host or cells: HEK 293

[28] = PSAM4-5HT3 (no additional mutation)
[29] = line L131G, Q139L, Y217F (same values as PSAM4-5HT3 line)

T20 sequence (P36544 with tags, fused parts or gaps L131G/Q139L/Y217F/T225I/M226I limits assumed): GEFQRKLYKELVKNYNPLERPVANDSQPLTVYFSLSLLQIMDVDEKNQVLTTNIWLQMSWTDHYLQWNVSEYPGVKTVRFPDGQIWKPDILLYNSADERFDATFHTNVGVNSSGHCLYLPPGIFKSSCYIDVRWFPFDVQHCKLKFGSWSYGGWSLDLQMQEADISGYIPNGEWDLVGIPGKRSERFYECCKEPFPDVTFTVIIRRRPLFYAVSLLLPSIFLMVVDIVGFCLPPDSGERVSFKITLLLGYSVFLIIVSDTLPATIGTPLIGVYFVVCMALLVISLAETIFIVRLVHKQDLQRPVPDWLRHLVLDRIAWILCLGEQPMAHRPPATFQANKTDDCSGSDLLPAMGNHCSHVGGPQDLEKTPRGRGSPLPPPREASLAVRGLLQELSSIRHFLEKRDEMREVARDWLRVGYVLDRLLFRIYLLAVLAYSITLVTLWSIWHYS
T17 sequence (P36544 with tags, fused parts or gaps L131G/Q139L/V154L/R155Y/W156Q/Y217F/T225I/M226I limits assumed): as the sequence (P36544 with tags, fused parts or gaps L131G/Q139L/Y217F/T225I/M226I limits assumed) above, with V132L, R133Y, W134Q counted along it
T22 sequence (P36544 with tags, fused parts or gaps L131G/Q139L/S172V/Y217F/T225I/M226I limits assumed): as the sequence (P36544 with tags, fused parts or gaps L131G/Q139L/Y217F/T225I/M226I limits assumed) above, with S150V counted along it
T5 sequence (P36544 with tags, fused parts or gaps L131G/Q139L/H163D/Y217F/T225I/M226I limits assumed): as the sequence (P36544 with tags, fused parts or gaps L131G/Q139L/Y217F/T225I/M226I limits assumed) above, with H141D counted along it
T1 sequence (P36544 with tags, fused parts or gaps L131G/Q139L/H163R/Y217F/T225I/M226I limits assumed): as the sequence (P36544 with tags, fused parts or gaps L131G/Q139L/Y217F/T225I/M226I limits assumed) above, with H141R counted along it
T8 sequence (P36544 with tags, fused parts or gaps L131G/Q139L/Y217V/T225I/M226I limits assumed): as the sequence (P36544 with tags, fused parts or gaps L131G/Q139L/Y217F/T225I/M226I limits assumed) above, with F195V counted along it
T11 sequence (P36544 with tags, fused parts or gaps L131G/Q139L/H163T/S172V/Y217F/T225I/M226I limits assumed): as the sequence (P36544 with tags, fused parts or gaps L131G/Q139L/Y217F/T225I/M226I limits assumed) above, with H141T, S150V counted along it
T12 sequence (P36544 with tags, fused parts or gaps L131G/Q139L/H163T/S172A/Y217F/T225I/M226I limits assumed): as the sequence (P36544 with tags, fused parts or gaps L131G/Q139L/Y217F/T225I/M226I limits assumed) above, with H141T, S150A counted along it
T16 sequence (P36544 with tags, fused parts or gaps L131G/Q139L/Y217H/T225I/M226I limits assumed): as the sequence (P36544 with tags, fused parts or gaps L131G/Q139L/Y217F/T225I/M226I limits assumed) above, with F195H counted along it
T7 sequence (P36544 with tags, fused parts or gaps L131G/Q139L/H163K/Y217F/T225I/M226I limits assumed): as the sequence (P36544 with tags, fused parts or gaps L131G/Q139L/Y217F/T225I/M226I limits assumed) above, with H141K counted along it
T9 sequence (P36544 with tags, fused parts or gaps L131G/Q139L/H163S/Y217F/T225I/M226I limits assumed): as the sequence (P36544 with tags, fused parts or gaps L131G/Q139L/Y217F/T225I/M226I limits assumed) above, with H141S counted along it

| Compound | EC50 [1] [µM] | EC50 [2] [µM] | EC50 [3] [µM] | EC50 [4] [µM] | EC50 [5] [µM] | EC50 [6] [µM] | EC50 [7] [µM] | EC50 [8] [µM] | EC50 [9] [µM] | EC50 [10] [µM] | EC50 [11] [µM] | EC50 [12] [µM] | EC50 [13] [µM] | EC50 [16] [µM] | EC50 [17] [µM] | EC50 [18] [µM] | EC50 [19] [µM] | EC50 [20, 28] [µM] | EC50 [20, 29] [µM] | EC50 [21] [µM] | other results |
| --- | --- | --- | --- | --- | --- | --- | --- | --- | --- | --- | --- | --- | --- | --- | --- | --- | --- | --- | --- | --- | --- |
| C[N+](C)(C)CCO [Choline, choline, reference compound] | 153 | 1110 | 349 | 177 | 361 | 680 | 168 | 1160 | 245 | 330 | 1330 | 1020 | 508 | 2060 | 94 | 230 | 910 | 143 | 143 | 646 | EC50 [14]: 330 µM; EC50 [15]: 172 µM; EC50 [22]: 895 µM; EC50 [23]: 832 µM; EC50 [24]: 107 µM; EC50 [25]: 219 µM |
| COc1cnc2cc3c(cc2n1)C1CNCC3C1 (centres unmarked) [uPSEM 793] | 0.0015 | 0.01 | 0.004 | > 0.1 | 0.0003 | 0.0041 | 0.0005 | 0.0024 | 0.0004 | 0.0014 | 0.0015 | 0.0025 | 0.0015 | 0.0008 | 0.0007 | 0.0007 | 0.0077 | 0.0017 | 0.0017 | 0.002 | EC50 ([15]; additional mutation W156N, read-out: EC50s (SEM) for additional mutations of α7^L131G, Q139L, Y217F -5HT3): 0.0007 µM; EC50 [26]: > 0.1 µM; EC50 [27]: > 0.1 µM; EC50 [22]: 0.0027 µM; EC50 [23]: 0.0012 µM; EC50 [24]: 0.0021 µM; EC50 [25]: 0.0005 µM |
